Data as given in US10072008B2, “Spiro-isoquinoline-3,4′-piperidine compounds having activity against pain” (LABORATORIOS DEL DR. ESTEVE S.A., priority 2015, dated 2018).

Each compound was assayed against human σ1 receptor (Homo sapiens (Human), UniProt Q99720) (assay: Human σ1 receptor radioligand assay ([3H](+)-pentazocine, transfected HEK-293 membranes)). Conditions: binding to the σ1 receptor expressed as Ki, [3H](+)-pentazocine 5 nM.
Description: Human σ1 Receptor Radioligand Assay
To investigate binding properties of test compounds to human σ1 receptor, transfected HEK-293 membranes and [^3H](+)-pentazocine (Perkin Elmer, NET-1056), as the radioligand, were used. The assay was carried out with 7 μg of membrane suspension, 5 nM of [^3H](+)-pentazocine in either absence or presence of either buffer or 10 μM Haloperidol for total and non-specific binding, respectively. Binding buffer contained Tris-HCl 50 mM at pH 8. Plates were incubated at 37° C. for 120 minutes. After the incubation period, the reaction mix was then transferred to MultiScreen HTS, FC plates (Millipore), filtered and plates were washed 3 times with ice-cold 10 mM Tris-HCL (pH 7.4). Filters were dried and counted at approximately 40% efficiency in a MicroBeta scintillation counter (Perkin-Elmer) using EcoScint liquid scintillation cocktail

Chain of human σ1 receptor (Q99720 whole entry): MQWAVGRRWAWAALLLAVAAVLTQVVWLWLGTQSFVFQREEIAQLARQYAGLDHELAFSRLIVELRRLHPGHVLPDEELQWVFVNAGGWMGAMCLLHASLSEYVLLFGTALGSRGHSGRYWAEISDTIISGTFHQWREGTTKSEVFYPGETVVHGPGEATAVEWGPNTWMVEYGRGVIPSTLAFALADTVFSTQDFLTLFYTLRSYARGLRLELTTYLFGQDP

Ki | Structure (SMILES)
< 100 nM | O=C1NC2(CCN(Cc3ccccc3)CC2)Cc2ccccc21 [Example 2, 1′-benzyl-2,4-dihydro-1H-spiro[isoquinoline-3,4′-piperidin]-1-one]
< 100 nM | c1ccc(CN2CCC3(CC2)Cc2ccccc2CN3)cc1 [Example 4, 1′-benzyl-2,4-dihydro-1H-spiro[isoquinoline-3,4′-piperidine]]
< 100 nM | CN1Cc2ccccc2CC12CCN(Cc1ccccc1)CC2 [Example 6, 1′-Benzyl-2-methyl-2,4-dihydro-1H-spiro[isoquinoline-3,4′-piperidine]]

Structure (SMILES) | Ki
O=C1NC2(CCN(CCc3ccccc3)CC2)Cc2ccccc21 [Example 1, 1′-(2-Phenylethyl)-2,4-dihydro-1H-spiro[isoquinoline-3,4′-piperidin]-1-one] | < 100 nM
CN1Cc2ccccc2CC12CCN(CCN1CCOCC1)CC2 [Example 7, 4-(2-(2-Methyl-2,4-dihydro-1H-spiro[isoquinoline-3,4′-piperidine]-1′-yl)ethyl)morpholine] | < 500 nM
